Data as given in patent US20040147562A1, “Methods of treating conditions associated with an EDG-1 receptor” (priority 2002, published 2004).
pEC50, pIC50: −log10 of the molar value.

How the values were obtained:
[1] = system: human umbilical vein endothelial cells; assay: Trans-matrigel chemotaxis / invasion assay with HUVECs (modified Boyden chamber); type: cell-based
Method: In addition to Edg-1, other Edg receptors are also implicated in S1P stimulated chemotaxis, including Edg-3 and Edg-6. To assess the relative roles of the Edg-1 receptors and Edg-3 receptors in S1P stimulated chemotaxis, the ability of S1P to evoke trans-matrigel chemotaxis was tested in the presence of the Edg-1 antagonist 101, the Edg-3 antagonist 301, and the combination of 101 and 301. These experiments were performed according to the migration and invasion assay protocols described in Section 7.12, below. The Edg-3 antagonist 301, 3-Methyl-2-phenyl-quinoline-4-carboxylic acid 4-fluoro-benzylamide, is extensively described in co-pending U.S. application Ser. No. 10/390,426, which is incorporated by reference in its entirety. 301 is identified as compound 101 in U.S. application Ser. No. 10/390,426. Further, 301 is commercially available from Specs (The Netherlands) as compound number AK-968/12971392.
S1P is a strong chemoattractant to human PBMCs. […] Several migration assays were performed to test this hypothesis and to determine the effect of Edg-1 agonists and antagonists on S1P mediated chemotaxis. The migration assays were performed according to the protocol described in Section 7.12, below. The results of theses assays are presented in FIG. 6, FIG. 7, FIG. 8, FIG. 9 and FIG. 13.
Cells were plated in a 24 well format using Fluoroblok filter insert plates ([…] pore size) or Fluoroblok matrigel coated filter insert plates (Becton Dickinson, San Diego, Calif.). The assay was a modified Boyden Chamber assay in which a cell suspension (1×10^5 cells/ml) was prepared in serum free medium and added to the top chamber. LPA or S1P (doses ranged from 0.1-10 μM in serum free medium) was added to the bottom chamber. Following a 20-24 hour incubation period, the number of cells migrating or invading into the lower chamber was quantitated by transferring the filter insert into a fresh 24-well plate containing 4 μg/ml calcein AM (Molecular Probes, Sunnyvale, Calif.) in Hank's Balanced Salt Solution and staining for one hour.
Detection was via fluorescent readout at 450 nm excitation/530 nm emission using a fluorimeter. The level of fluorescence correlated with cell number.

Edg-7 = target: T1, Edg-7 (Homo sapiens, UniProt Q9UBY5); assay: Intracellular calcium (FLIPR) assay, HTC cells expressing Edg-7; type: cell-based
T1 construct: expressed in transfected cells; host or cells: HTC rat hepatoma cells
T1 sequence (Q9UBY5 1-353): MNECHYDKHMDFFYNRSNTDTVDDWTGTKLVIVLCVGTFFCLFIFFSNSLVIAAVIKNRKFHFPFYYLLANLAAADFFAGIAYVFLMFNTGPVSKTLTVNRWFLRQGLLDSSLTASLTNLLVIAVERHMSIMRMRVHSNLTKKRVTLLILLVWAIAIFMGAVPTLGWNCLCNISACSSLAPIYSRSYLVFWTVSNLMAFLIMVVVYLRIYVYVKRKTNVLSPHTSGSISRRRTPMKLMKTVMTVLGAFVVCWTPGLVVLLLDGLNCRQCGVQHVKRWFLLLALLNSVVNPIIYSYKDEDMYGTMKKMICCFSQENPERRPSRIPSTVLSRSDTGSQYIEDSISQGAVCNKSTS

[2] = system: mouse splenic CD4 T cells; assay: Lymphocyte migration in mouse dorsal air-pouch model; type: in vivo; conditions: lavage after 24 hours, FIG. 15
Method: To test migration of mouse T cells in vivo, the ability of exodus-2 to attract mouse lymphocytes was assessed in the mouse dorsal air-pouch model. In these experiments, 0.5 ml 1 μM exodus-2 was introduced into a dorsal air-pouch produced by injecting 5 ml of filtered air subcutaneously. Mouse splenic CD4 T cells were fluorescently labeled with FM-DiI (Molecular Probes, Inc., Eugene, Oreg.), then treated with S1P (1 μM), 102, or 104. The treated CD4T cells were introduced into the peritoneal cavity. After 24 hours, lavage (1 ml) from the dorsal air pouch was assayed for fluorescence.

Edg-3 = target: T2, Edg-3 (Homo sapiens, UniProt Q99500); assay: Intracellular calcium (FLIPR) assay, HTC cells expressing Edg-3; type: cell-based
T2 construct: expressed in transfected cells; host or cells: HTC rat hepatoma cells

Edg-8 = target: T3, Edg-8 (Homo sapiens, UniProt Q9H228); assay: Intracellular calcium (FLIPR) assay, HTC cells expressing Edg-8; type: cell-based
T3 construct: expressed in transfected cells; host or cells: HTC rat hepatoma cells

human Edg-1 receptors = assay: Intracellular calcium (FLIPR) assay, HTC cells expressing Edg-1; type: cell-based; conditions: Edg-1 relative to other Edg receptors
Method: The compounds were tested in HTC cells expressing human Edg-1 receptors. […] The compounds were tested in this recombinant system first, and subsequently tested in cell lines expressing Edg-1 (in addition to other Edg receptors).
[…] receptors such as Edg-1, couple to calcium effector pathways, and result in increases in intracellular calcium following receptor activation (An, 1998, J. Cell Biochem. Supp 30-31:147-157). This biological response lends itself to a very efficient, high-throughput screen using a Fluorescence Imaging Plate Reader (FLIPR; Molecular Devices, Sunnyvale, Calif.). The FLIPR system is a real-time, cell-based assay system with continuous fluorescence detection using a cooled CCD camera. The FLIPR system was used to develop an Edg-1 receptor screen. Rat hepatoma cells stably expressing Edg-1/3i3 chimera or Edg-1 and Gqi were plated on 384-well plates and loaded with a calcium dye loading kit (Molecular Devices, Sunnyvale, Calif.) for 1 hour at room temperature. Cells were then placed on the FLIPR^384 (Molecular Devices, Sunnyvale, Calif.) and excited by an argon laser at 488 nm. The data for the entire 384-well plate was updated every second. An integrated robotic pipettor allowed for simultaneous compound addition into each individual well in the plate.

Edg-4 = Edg-4 (Homo sapiens, UniProt Q9HBW0); assay: Intracellular calcium (FLIPR) assay, HTC cells expressing Edg-4; type: cell-based
Edg-6 = target: T4, Edg-6 (Homo sapiens, UniProt O95977); assay: Intracellular calcium (FLIPR) assay, HTC cells expressing Edg-6; type: cell-based
T4 construct: expressed in transfected cells; host or cells: HTC rat hepatoma cells
T4 sequence (O95977 1-384): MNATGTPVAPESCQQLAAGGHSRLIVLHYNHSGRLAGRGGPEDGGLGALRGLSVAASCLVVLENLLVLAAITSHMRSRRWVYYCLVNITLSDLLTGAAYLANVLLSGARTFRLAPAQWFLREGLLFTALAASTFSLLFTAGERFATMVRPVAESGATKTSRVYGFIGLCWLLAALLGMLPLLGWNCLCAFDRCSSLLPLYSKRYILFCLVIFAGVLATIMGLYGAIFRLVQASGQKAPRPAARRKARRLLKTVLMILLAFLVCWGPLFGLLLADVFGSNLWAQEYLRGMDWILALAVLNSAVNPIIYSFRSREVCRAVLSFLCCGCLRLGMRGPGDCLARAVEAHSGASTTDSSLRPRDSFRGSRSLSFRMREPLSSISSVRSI

[3] = concentrations as high as 20 μM
[4] = agonist, concentrations as high as 25 μM

Chain of Edg-4 (Q9HBW0 1-340 limits assumed): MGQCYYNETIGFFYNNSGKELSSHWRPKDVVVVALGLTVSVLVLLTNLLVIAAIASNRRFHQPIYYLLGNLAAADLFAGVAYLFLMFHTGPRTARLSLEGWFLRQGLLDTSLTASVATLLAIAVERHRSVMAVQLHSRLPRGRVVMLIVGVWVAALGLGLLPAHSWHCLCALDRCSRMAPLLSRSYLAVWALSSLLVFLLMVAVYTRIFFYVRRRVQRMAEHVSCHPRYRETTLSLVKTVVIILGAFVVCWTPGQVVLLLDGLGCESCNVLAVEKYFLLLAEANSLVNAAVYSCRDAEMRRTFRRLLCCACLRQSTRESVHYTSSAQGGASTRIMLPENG
T2 sequence (Q99500 whole entry): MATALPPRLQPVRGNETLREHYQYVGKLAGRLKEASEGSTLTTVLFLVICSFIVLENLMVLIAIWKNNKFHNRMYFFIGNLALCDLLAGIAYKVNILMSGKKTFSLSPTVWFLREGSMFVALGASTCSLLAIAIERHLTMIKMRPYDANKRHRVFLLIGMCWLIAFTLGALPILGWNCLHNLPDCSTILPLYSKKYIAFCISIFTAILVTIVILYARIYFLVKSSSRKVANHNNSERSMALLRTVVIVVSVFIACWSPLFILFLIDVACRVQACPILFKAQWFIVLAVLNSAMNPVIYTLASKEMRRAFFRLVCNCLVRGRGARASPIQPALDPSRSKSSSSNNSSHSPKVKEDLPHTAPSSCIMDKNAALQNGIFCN
T3 sequence (Q9H228 whole entry): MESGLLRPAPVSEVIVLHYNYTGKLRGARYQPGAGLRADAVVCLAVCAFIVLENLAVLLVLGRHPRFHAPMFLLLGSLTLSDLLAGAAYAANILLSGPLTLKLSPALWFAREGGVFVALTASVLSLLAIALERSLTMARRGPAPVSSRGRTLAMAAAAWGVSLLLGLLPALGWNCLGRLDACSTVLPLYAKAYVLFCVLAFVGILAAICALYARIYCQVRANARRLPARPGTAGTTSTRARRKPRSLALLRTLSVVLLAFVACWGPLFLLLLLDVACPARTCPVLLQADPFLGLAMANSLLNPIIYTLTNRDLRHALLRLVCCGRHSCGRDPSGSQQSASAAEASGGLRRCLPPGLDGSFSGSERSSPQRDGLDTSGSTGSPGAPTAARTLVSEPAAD

O=C(c1cccnc1)N1N=C(c2ccc(Br)cc2)CC1(O)C(F)(F)F (stereo not drawn) [Compound 102]
inhibition of S1P-induced matrigel invasion ([1]; HUVEC, 10 μM (FIG. 6)): inhibits S1P-induced matrigel invasion | pIC50 (Edg-7; Table 2, LPA-stimulated): < 4.70 | inhibition of LPA-stimulated calcium increases in HTC cells expressing Edg-7 (Edg-7; [3]): did not inhibit | reversal of S1P-mediated desensitization in dorsal air-pouch ([2]; co-treatment with S1P): can be reversed | pIC50 (Edg-3; Table 2, S1P-stimulated): < 4.70 | inhibition of S1P-stimulated calcium increases in HTC cells expressing Edg-3 (Edg-3; [3]): did not inhibit | pIC50 (Edg-8; Table 2, S1P-stimulated): < 4.70 | inhibition of S1P-stimulated calcium increases in HTC cells expressing Edg-8 (Edg-8; [3]): did not inhibit | Fold Selectivity (human Edg-1 receptors; inhibition (Table 2)): >11.8 Fold | pIC50 (Edg-4; Table 2, LPA-stimulated): < 4.70 | inhibition of LPA-stimulated calcium increases in HTC cells expressing Edg-4 (Edg-4; [3]): did not inhibit | pIC50 (Edg-6; Table 2, S1P-stimulated): < 4.70 | inhibition of S1P-stimulated calcium increases in HTC cells expressing Edg-6 (Edg-6; [3]): did not inhibit

COc1cc(C(=O)c2cc(Cl)ccc2N)cc(OC)c1OC [Compound 104, (2-Amino-5-chlorophenyl)-(3,4,5-trimethoxyphenyl)methanone]
potency of invasion stimulation relative to S1P ([1]; HUVEC, FIG. 7): significantly less potent that S1P | stimulation of invasion of Human Umbilical Vein Endothelial cells ([1]; concentrations between 0.5-100 μM, FIG. 7): stimulates invasion | pEC50 (Edg-7; agonist): < 4.60 | calcium response in HTC cells expressing Edg-7 (Edg-7; [4]): did not elicit a calcium response | migration of treated lymphocytes to exodus-2 in dorsal air-pouch ([2]; CD4 T cells treated ex vivo, given intraperitoneally, S1P 1 μM): desensitizes the lymphocytes to attraction by exodus-2 | pEC50 (Edg-3; agonist): < 4.60 | calcium response in HTC cells expressing Edg-3 (Edg-3; [4]): did not elicit a calcium response | pEC50 (Edg-8; agonist): < 4.60 | calcium response in HTC cells expressing Edg-8 (Edg-8; [4]): did not elicit a calcium response | Fold Selectivity (human Edg-1 receptors; agonist (Table 4)): >2.5 Fold | pEC50 (Edg-4; agonist): < 4.60 | calcium response in HTC cells expressing Edg-4 (Edg-4; [4]): did not elicit a calcium response | pEC50 (Edg-6; agonist): < 4.60 | calcium response in HTC cells expressing Edg-6 (Edg-6; [4]): did not elicit a calcium response
